Laboratory results: US20080287915A1, “Tissue engineering system with scleral lens” (Boston Foundation for Sight, priority 2007, published 2008)
Like-named read-outs stand apart in the source and are kept apart here.

Columns and labels:
[1] = system: corneal neovascularization; settings: solution of 1% AVASTIN and 0.01% BAK, one drop, four times per day for at least thirty days, topical; cited from earlier work
[2] = system: corneal neovascularization; assay: AVASTIN in the scleral lens drug delivery system to treat corneal neovascularization; assay type: in vivo
Text: This study using AVASTIN® off-label, topically, to treat corneal neovascularization was repeated using the scleral lens drug delivery system. […] This therapeutic effect was achieved without BAK. Instead, the expanded pre-corneal tear film of the scleral lens drug delivery system provided adequate bioavailability of the drug without exposing the cornea to BAK.

Substance: bevacizumab [AVASTIN®]
- therapeutic effect on corneal neovascularization [1]: Therapeutic effect was reported
- therapeutic effect on corneal neovascularization ([2]; one drop of 1% AVASTIN added to expanded pre-corneal tear film of artificial tears in a scleral lens twice per day, without BAK): achieved a therapeutic effect by thirty days with continued benefit over the subsequent sixty days
- regression of corneal neovascularization (clinical photos, FIG. 5) ([2]; scleral lens drug delivery system): regression of corneal neovascularization
